Data: the supplement of paper PMC10307832

Columns and labels:
Experiment in all cases: relative viability (nuclei count vs DMSO), 5 days (fraction); higher = more cells survive
17-AAG + Dasatinib = compound: C=CCNC1=C2C[C@@H](C)C[C@H](OC)[C@H](O)[C@@H](C)/C=C(\C)[C@H](OC(N)=O)[C@@H](OC)/C=C\C=C(/C)C(=O)NC(=CC1=O)C2=O [17-AAG] + Cc1nc(Nc2ncc(C(=O)Nc3c(C)cccc3Cl)s2)cc(N2CCN(CCO)CC2)n1 [Dasatinib] (partner 0.075 µM)
How it was run: (§1)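 Nuclei were stained with Hoechst during a one-step fixation (final 0.05% Triton X-100, 1% formaldehyde, 1 ug/ml Hoechst) carried out 5 days after dosing, then counted on 4× images. The cells, lung cancer lines in 1536-well plates, had been dosed by pin tool the day after seeding with one drug alone or a fixed anchor-drug dose plus five library-drug doses (not always all listed) in √10 steps. Relative viability is the nuclei count in treated wells divided by that in vehicle wells, and each value is the median of duplicate plates.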

17-AAG + Pemetrexed = compound: C=CCNC1=C2C[C@@H](C)C[C@H](OC)[C@H](O)[C@@H](C)/C=C(\C)[C@H](OC(N)=O)[C@@H](OC)/C=C\C=C(/C)C(=O)NC(=CC1=O)C2=O [17-AAG] + Nc1nc2[nH]cc(CCc3ccc(C(=O)N[C@@H](CCC(=O)O)C(=O)O)cc3)c2c(=O)[nH]1 [Pemetrexed] (partner 0.2 µM)
How it was run: as §1

17-AAG + Crizotinib = compound: C=CCNC1=C2C[C@@H](C)C[C@H](OC)[C@H](O)[C@@H](C)/C=C(\C)[C@H](OC(N)=O)[C@@H](OC)/C=C\C=C(/C)C(=O)NC(=CC1=O)C2=O [17-AAG] + C[C@@H](Oc1cc(-c2cnn(C3CCNCC3)c2)cnc1N)c1c(Cl)ccc(F)c1Cl [Crizotinib] (partner 1 µM)
How it was run: as §1

17-AAG + Lapatinib = compound: C=CCNC1=C2C[C@@H](C)C[C@H](OC)[C@H](O)[C@@H](C)/C=C(\C)[C@H](OC(N)=O)[C@@H](OC)/C=C\C=C(/C)C(=O)NC(=CC1=O)C2=O [17-AAG] + CS(=O)(=O)CCNCc1ccc(-c2ccc3ncnc(Nc4ccc(OCc5cccc(F)c5)c(Cl)c4)c3c2)o1 [Lapatinib] (partner 2 µM)
How it was run: as §1

Cell Line | relative viability (17-AAG + Dasatinib; first compound 0.00128 µM) | relative viability (17-AAG + Dasatinib; first compound 0.004048 µM) | relative viability (17-AAG + Dasatinib; first compound 0.0128 µM) | relative viability (17-AAG + Dasatinib; first compound 0.04048 µM) | relative viability (17-AAG + Dasatinib; first compound 0.128 µM) | relative viability (17-AAG + Pemetrexed; first compound 0.00128 µM) | relative viability (17-AAG + Pemetrexed; first compound 0.004048 µM) | relative viability (17-AAG + Pemetrexed; first compound 0.0128 µM) | relative viability (17-AAG + Pemetrexed; first compound 0.04048 µM) | relative viability (17-AAG + Pemetrexed; first compound 0.128 µM) | relative viability (17-AAG + Crizotinib; first compound 0.00128 µM) | relative viability (17-AAG + Crizotinib; first compound 0.004048 µM) | relative viability (17-AAG + Crizotinib; first compound 0.0128 µM) | relative viability (17-AAG + Crizotinib; first compound 0.04048 µM) | relative viability (17-AAG + Crizotinib; first compound 0.128 µM) | relative viability (17-AAG + Lapatinib; first compound 0.00128 µM) | relative viability (17-AAG + Lapatinib; first compound 0.004048 µM) | relative viability (17-AAG + Lapatinib; first compound 0.0128 µM) | relative viability (17-AAG + Lapatinib; first compound 0.04048 µM) | relative viability (17-AAG + Lapatinib; first compound 0.128 µM)
NCI-H520 | 0.241 | 0.236 | 0.21 | 0.169 | 0.121 | 0.604 | 0.7 | 0.261 | 0.127 | 0.129 | 0.924 | 0.663 | 0.492 | 0.112 | 0.0889 | 0.797 | 0.654 | 0.396 | 0.132 | 0.112
SW 1573 | 0.699 | 0.461 | 0.135 | 0.136 | 0.0753 | 0.819 | 0.93 | 0.164 | 0.11 | 0.0923 | 0.764 | 0.872 | 0.687 | 0.167 | 0.106 | 1.06 | 1.21 | 0.897 | 0.217 | 0.117
EKVX | 0.414 | 0.542 | 0.472 | 0.343 | 0.229 | 0.475 | 0.381 | 0.491 | 0.17 | 0.131 | 1.07 | 0.902 | 0.951 | 0.529 | 0.114 | 0.223 | 0.218 | 0.197 | 0.0769 | 0.12
NCI-H1734 | 0.482 | 0.445 | 0.356 | 0.176 | 0.105 | 0.4 | 0.474 | 0.475 | 0.261 | 0.161 | 0.647 | 0.681 | 0.646 | 0.195 | 0.142 | 0.952 | 0.934 | 0.764 | 0.579 | 0.141
